Laboratory results taken from US12428413B2 (CHDI Foundation, Inc., priority 2019, dated 2025).
Read-outs that look alike come from different tables or passages of the source.

Legend:
[1] = from 1 through 7 hours after instillation; cited from earlier work
[2] = tested on: cellular ROCK activity (cofilin phosphorylation at Ser3) in A7r5 rat smooth muscle cells; test: Cellular ROCK activity: cofilin (Ser3) phosphorylation, In-Cell Western assay; type: cell-based; details: Rattus norvegicus, A7R5, 1 h, 1 hour compound incubation, phospho-cofilin (Ser3), read-out: CELL_IC50
How it was run: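 A7r5 rat smooth muscle cells (3000/well, overnight) exposed to compound for 1 h at 37° C., then formaldehyde-fixed. Phospho-cofilin Ser3 detected by In-Cell Western with 800CW secondary antibody, read at 700 and 800 nm on an Odyssey imager.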

[3] = molecular target: T1, human catalytic domain ROCK II protein (amino acids 5-554) with a N-terminal GST tag (Homo sapiens, UniProt O75116)
[4] = molecular target: T1, human catalytic domain ROCK II protein (amino acids 5-554) with a N-terminal GST tag; test: biochemical
[5] = tested on: hepatic ischemia/reperfusion in rats; details: oral pretreatment, 25% in vehicle-treated animals; cited from earlier work

T1 sequence (O75116 5-554): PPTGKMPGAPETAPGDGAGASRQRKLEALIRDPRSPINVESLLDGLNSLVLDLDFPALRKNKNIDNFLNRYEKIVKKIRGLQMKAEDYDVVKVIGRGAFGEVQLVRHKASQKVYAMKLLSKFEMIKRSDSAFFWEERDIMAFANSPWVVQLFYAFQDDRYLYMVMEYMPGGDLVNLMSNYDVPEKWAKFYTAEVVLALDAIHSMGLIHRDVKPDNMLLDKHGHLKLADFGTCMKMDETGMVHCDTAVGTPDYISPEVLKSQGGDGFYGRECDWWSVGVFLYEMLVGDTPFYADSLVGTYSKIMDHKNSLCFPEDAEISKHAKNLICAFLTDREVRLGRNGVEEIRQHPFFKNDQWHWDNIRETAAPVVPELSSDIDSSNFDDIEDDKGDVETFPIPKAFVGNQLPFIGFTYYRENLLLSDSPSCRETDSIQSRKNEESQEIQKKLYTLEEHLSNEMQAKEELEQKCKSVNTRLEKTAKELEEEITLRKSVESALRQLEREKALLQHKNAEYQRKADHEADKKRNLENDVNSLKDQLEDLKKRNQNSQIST

| Structure (SMILES) | intraocular pressure reduction [1] | IC50 [2] [nM] | IC50 [3] [nM] | IC50 [4] [nM] | survival at one week after ischemia [5] [%] |
| --- | --- | --- | --- | --- | --- |
| C[C@H]1CNCCCN1S(=O)(=O)c1cccc2cncc(F)c12 [Ripasudil] | Significant intraocular pressure reduction | – | – | – | – |
| COc1cccc([C@@H](C)NC(=O)N2CCN(c3ccncc3F)C[C@H]2C)c1F [Example 44, (R)—N—((R)-1-(2-Fluoro-3-methoxyphenyl)ethyl)-4-(3-fluoropyridin-4-yl)-2-methylpiperazine-1-carboxamide] | – | 323 | 26.3 | – | – |
| C[C@@H](NC(=O)N1CCN(c2ccncc2F)CC1)c1cccc2occc12 [Example 29, (R)—N-(1-(Benzofuran-4-yl)ethyl)-4-(3-fluoropyridin-4-yl)piperazine-1-carboxamide] | – | 54.1 | – | 4.5 | – |
| COc1ccc(F)c([C@@H](C)NC(=O)N2CCN(c3ccnc(F)c3)C[C@H]2C)c1 [Example 112] | – | 1320 | – | 38.3 | – |
| Cc1cnc2cccc([C@H](C)NC(=O)N3CCN(c4ccncc4F)C[C@H]3C)n12 [Example 66, (R)-4-(3-Fluoropyridin-4-yl)-2-methyl-N—((S)-1-(3-methylimidazo[1,2-a]pyridin-5-yl)ethyl)piperazine-1-carboxamide] | – | 1270 | – | 297 | – |
| C[C@H](NC(=O)N1CCN(c2ccncc2F)C[C@H]1C)c1cccc2c1N(C)CCO2 [Example 144] | – | 674 | – | 12.8 | – |
| COc1cccc([C@@H](C)NC(=O)N2CCN(c3ccncc3Cl)C[C@H]2C)c1 [Example 155] | – | 42.2 | – | 2.7 | – |
| [2H]C([2H])([2H])Oc1cccc([C@H](NC(=O)N2CCN(c3ccncc3F)C[C@H]2C)C([2H])([2H])[2H])c1 [Example 81, (R)-4-(3-Fluoropyridin-4-yl)-N—((R)-1-(3-(methoxy-d3)phenyl)ethyl-2,2,2-d3)-2-methylpiperazine-1-carboxamide] | – | 8.1 | – | 3.7 | – |
| COc1cccc([C@@H](C)NC(=O)N2C[C@H]3C[C@@H]2CN3c2ccncc2F)c1 [Example 153] | – | 2430 | – | 238 | – |
| CC(NC(=O)N1CCN(c2ccncc2F)CC1)c1cccc(F)c1Cl (single isomer, unassigned) [Example 22, N-(1-(2-Chloro-3-fluorophenyl)ethyl)-4-(3-fluoropyridin-4-yl)piperazine-1-carboxamide] | – | 1020 | – | 46.7 | – |
| COc1cccc([C@@H](C)NC(=O)N2CCN(c3ccncc3F)CC2C)c1 (stereo partly drawn) [Example 154] | – | 60.2 | – | 19.6 | – |
| C[C@@H](NC(=O)N1CCN(c2ccnc(F)c2)[C@@H](C)C1)c1cccc(OC(F)F)c1 [Example 120] | – | 3970 | – | 59.5 | – |
| COc1cccc([C@@H](C)NC(=O)N2CCN(c3ccncc3F)[C@@H](C)C2)c1 [Example 90, (S)-4-(3-Fluoropyridin-4-yl)-N—((R)-1-(3-methoxyphenyl)ethyl)-3-methylpiperazine-1-carboxamide] | – | 62 | – | 4.8 | – |
| COc1cccc([C@@H](C)NC(=O)N2CCN(c3ccncc3F)[C@H](C)C2)c1 [Example 91, (R)-4-(3-Fluoropyridin-4-yl)-N—((R)-1-(3-methoxyphenyl)ethyl)-3-methylpiperazine-1-carboxamide] | – | 783 | – | 150 | – |
| COc1cccc(CNC(=O)N2CCN(c3ccncc3F)CC2)c1 [Example 25, 4-(3-Fluoropyridin-4-yl)-N-(3-methoxybenzyl)piperazine-1-carboxamide] | – | 749 | – | 52.3 | – |
| COc1cccc(CNC(=O)N2[C@H](C)CN(c3ccncc3F)C[C@H]2C)c1 [Example 95, (2R,6R)-4-(3-Fluoropyridin-4-yl)-N-(3-methoxybenzyl)-2,6-dimethylpiperazine-1-carboxamide] | – | 1160 | – | 38.3 | – |
| COc1ccc(Cl)c([C@@H](C)NC(=O)N2CCN(c3ccnc(F)c3)C[C@H]2C)c1 [Example 3, (R)—N—((R)-1-(2-Chloro-5-methoxyphenyl)ethyl)-4-(2-fluoropyridin-4-yl)-2-methylpiperazine-1-carboxamide] | – | 2410 | – | 59.9 | – |

| Structure (SMILES) | intraocular pressure reduction [1] | IC50 [2] [nM] | IC50 [3] [nM] | IC50 [4] [nM] | survival at one week after ischemia [5] [%] |
| --- | --- | --- | --- | --- | --- |
| C[C@@H](N)[C@H]1CC[C@H](C(=O)Nc2ccncc2)CC1 [Example Y27632] | – | – | – | – | 75 |
| Cc1cnc2cccc([C@@H](C)NC(=O)N3CCN(c4ccnc(F)c4)C[C@H]3C)n12 [Example 9, (R)-4-(2-Fluoropyridin-4-yl)-2-methyl-N—((R)-1-(3-methylimidazo[1,2-a]pyridin-5-yl)ethyl)piperazine-1-carboxamide] | – | 240 | – | 12.3 | – |
| C[C@@H](NC(=O)N1CCN(c2ccncc2F)CC1)c1cccc(OC(F)F)c1 [Example 127] | – | 428 | – | 24.2 | – |
| C[C@@H](NC(=O)N1CCN(c2ccncc2F)CC1)c1ccccc1Cl [Example 124] | – | 1160 | – | 61.1 | – |
| COc1cccc([C@@H](C)NC(=O)N2CCN(c3ccncc3F)CC2)c1 [Example 16, (R)-4-(3-fluoropyridin-4-yl)-N-(1-(3-methoxyphenyl)ethyl)piperazine-1-carboxamide] | – | 122 | – | 7.6 | – |
| C[C@@H](NC(=O)N1CCN(c2ccncc2F)CC1)c1cccc2c1CC(C)(C)O2 [Example 30, (R)—N-(1-(2,2-Dimethyl-2,3-dihydrobenzofuran-4-yl)ethyl)-4-(3-fluoropyridin-4-yl)piperazine-1-carboxamide] | – | 301 | – | 22.4 | – |
| C[C@@H]1CN(c2ccnc(F)c2)CCN1C(=O)NCc1cccc2occc12 [Example 8, (R)—N-(Benzofuran-4-ylmethyl)-4-(2-fluoropyridin-4-yl)-2-methylpiperazine-1-carboxamide] | – | 676 | – | 22 | – |
| COc1cccc(CN2CC[C@H]3CN(c4ccncc4F)CCN3C2=O)c1 [Example 88, (S)-2-(3-Fluoropyridin-4-yl)-7-(3-methoxybenzyl)octahydro-6H-pyrazino[1,2-c]pyrimidin-6-one] | – | 3800 | – | 362 | – |
| [2H]C([2H])([2H])Oc1cccc([C@@H](C)NC(=O)N2CCN(c3ccncc3F)CC2)c1 [Example 132] | – | 185 | – | 6.7 | – |
| O=C(NCc1ccccc1Cl)N1CCN(c2ccncc2F)CC1 [Example 130] | – | 1660 | – | 122 | – |
| C[C@@H](NC(=O)N1CCN(c2ccncc2F)CC1)c1cccc2c1CCO2 [Example 28, (R)—N-(1-(2,3-Dihydrobenzofuran-4-yl)ethyl)-4-(3-fluoropyridin-4-yl)piperazine-1-carboxamide] | – | 27.2 | – | 2.8 | – |
| COc1cccc([C@@H](C)NC(=O)N2[C@H](C)CN(c3ccnc(F)c3)C[C@H]2C)c1 [Example 15, (2R,6R)-4-(2-Fluoropyridin-4-yl)-N—((R)-1-(3-methoxyphenyl)ethyl)-2,6-dimethylpiperazine-1-carboxamide] | – | 1390 | – | 75.9 | – |
| C[C@@H]1CN(c2ccncc2F)CCN1C(=O)N[C@H](C)c1ccc(F)cc1Cl [Example 50, (R)—N—((R)-1-(2-Chloro-4-fluorophenyl)ethyl)-4-(3-fluoropyridin-4-yl)-2-methylpiperazine-1-carboxamide] | – | 184 | – | 7.8 | – |
| COc1cccc(CNC(=O)N2CCN(c3ccnc(F)c3)C[C@H]2C)c1 [Example 107] | – | 1070 | – | 42.2 | – |
| COc1cccc([C@@H](C)NC(=O)N2CCN(c3ccncc3F)C[C@@H]2C)c1 [Example 133] | – | 2440 | – | 167 | – |
| [2H]C([2H])([2H])Oc1cccc([C@@H](C)NC(=O)N2CCN(c3ccncc3F)C[C@H]2C)c1 [Example 82, (R)-4-(3-Fluoropyridin-4-yl)-N—((R)-1-(3-(methoxy-d3)phenyl)ethyl)-2-methylpiperazine-1-carboxamide] | – | 9.1 | – | 2.8 | – |
| COc1cccc([C@@H](C)NC(=O)N2CCN(c3ccncc3F)CC2CO)c1 (stereo partly drawn) [Example 137] | – | 79.8 | – | 4.8 | – |
